By MIC is commonly meant the smallest concentration in the dilution series that meets the test's criterion for growth inhibition. A lower MIC goes with greater potency. One may read the inhibition in vivo as the change of the read-out against control, counted positive when it falls.

The text below walks through data of ChEMBL document CHEMBL2146439, “Synthesis and pharmacological evaluation of a novel series of 3-aryl-2-(2-substituted-4-methylthiazole-5-yl)thiazolidin-4-one as possible anti-inflammatory and antimicrobial agents” (2012).

Holding throughout (assay type): functional
One assay relates to Escherichia coli. The experiment in a line: Antibacterial activity against Escherichia coli ATCC 25922 after 2 days by microdilution broth method. The conditions noted are these: ATCC 25922, 48 h. For orientation: Dilution methods test growth across graded concentrations, often in twofold steps.
In another assay the test system is Aspergillus niger. Nature of the assay: Antifungal activity against Aspergillus niger ATCC 9029 after 2 days by microdilution broth method. The settings on record: ATCC 9029, 48 h.
A further assay relates to Candida albicans. The experiment in a line: Antifungal activity against Candida albicans ATCC 10231 after 2 days by microdilution broth method. The conditions noted are these: ATCC 10231, 48 h.
A further assay relates to Staphylococcus aureus. Nature of the assay: Antibacterial activity against Staphylococcus aureus ATCC 25923 after 2 days by microdilution broth method. The settings on record: ATCC 25923, 48 h.
Assay [1] relates to Rattus norvegicus. Nature of the assay: Antiinflammatory activity in Wistar albino rat assessed as inhibition of carrageenan-induced paw edema at 40 mg/kg, po administered 1 hr prior to carrageenan challenge measured 1 hr post carrageenan challenge relative to control.
The subject of assay [2] is Rattus norvegicus. The experiment in a line: Antiinflammatory activity in Wistar albino rat assessed as inhibition of carrageenan-induced paw edema at 40 mg/kg, po administered 1 hr prior to carrageenan challenge measured 2 hrs post carrageenan challenge relative to control. For orientation: Carrageenan injected into the paw causes an acute inflammation.
In assay [3] the test system is Rattus norvegicus. The experiment in a line: Antiinflammatory activity in Wistar albino rat assessed as inhibition of carrageenan-induced paw edema at 40 mg/kg, po administered 1 hr prior to carrageenan challenge measured 4 hrs post carrageenan challenge relative to control.

≈ marks a conversion by molar mass, not a printed value. Calls of active or inactive are those of the source.

For `Cc1nc(-c2ccc(Cl)cc2)sc1C1SCC(=O)N1c1ccccc1` (configuration not stated), the MIC against Escherichia coli was found to be 32.3 µM (≈ 12.5 µg/mL); in the assay with Aspergillus niger, 129 µM (≈ 50 µg/mL); against Candida albicans it was 129 µM (≈ 50 µg/mL); in the assay on Staphylococcus aureus, 32.3 µM (≈ 12.5 µg/mL).

Consider `Cc1nc(-c2ccccc2)sc1C1SCC(=O)N1c1ccccc1` (configuration not stated), for which the inhibition in vivo at 40 mg/kg in the assay with Rattus norvegicus [1] worked out at 44.4%; in the assay on Rattus norvegicus [2], 50.6%; with Rattus norvegicus [3] it was 63.7%. The MIC was determined as 70.9 µM (≈ 25 µg/mL) against Escherichia coli, 142 µM (≈ 50 µg/mL) in the assay on Aspergillus niger, 142 µM (≈ 50 µg/mL) with Candida albicans and 70.9 µM (≈ 25 µg/mL) in the assay on Staphylococcus aureus.

For the compound `Cc1nc(-c2ccc(Cl)cc2)sc1C1SCC(=O)N1c1ccc(F)cc1` (configuration not stated), the inhibition in vivo at 40 mg/kg with Rattus norvegicus [1] worked out at 63.4%; with Rattus norvegicus [2], 63.9%; with Rattus norvegicus [3] it was 67.6%. The MIC with Escherichia coli turned out to be 15.4 µM (≈ 6.25 µg/mL); with Aspergillus niger it was 61.7 µM (≈ 25 µg/mL); in the assay on Candida albicans, 30.9 µM (≈ 12.5 µg/mL); with Staphylococcus aureus it was 30.9 µM (≈ 12.5 µg/mL).

Take `Cc1ccc(N2C(=O)CSC2c2sc(-c3ccc(Cl)cc3)nc2C)cc1` (configuration not stated): the inhibition in vivo at 40 mg/kg in the assay on Rattus norvegicus [1] was 38.3%; with Rattus norvegicus [2], 37.6%; in the assay on Rattus norvegicus [3] it was 63.9%. Further, the MIC against Escherichia coli was 31.2 µM (≈ 12.5 µg/mL); against Aspergillus niger, 31.2 µM (≈ 12.5 µg/mL); with Candida albicans, 15.6 µM (≈ 6.25 µg/mL); against Staphylococcus aureus, 31.2 µM (≈ 12.5 µg/mL).

Consider `OC(Cn1cncn1)(Cn1cncn1)c1ccc(F)cc1F` [FLUCONAZOLE], for which the MIC against Aspergillus niger came out at 5.09 µM (≈ 1.56 µg/mL); against Candida albicans, 2.55 µM (≈ 0.781 µg/mL).

For the compound `Cc1ccc(N2C(=O)CSC2c2sc(-c3ccccc3)nc2C)cc1` (configuration not stated), the inhibition in vivo at 40 mg/kg was 58.1% in the assay with Rattus norvegicus [1], 60.1% in the assay on Rattus norvegicus [2] and 80.6% with Rattus norvegicus [3]. The minimum inhibitory concentration (MIC) against Escherichia coli was 60.4 µM (≈ 22.1 µg/mL); against Aspergillus niger, 30.2 µM (≈ 11.1 µg/mL); in the assay with Candida albicans, 30.2 µM (≈ 11.1 µg/mL); in the assay on Staphylococcus aureus it was 121 µM (≈ 44.3 µg/mL).

With `Cc1nc(-c2ccccc2)sc1C1SCC(=O)N1c1ccc(Cl)cc1` (configuration not stated), the figures for the inhibition in vivo at 40 mg/kg in the assay with Rattus norvegicus [1], in the assay on Rattus norvegicus [2] and with Rattus norvegicus [3] were 54.8%, 59.1% and 80.8%, respectively. The MIC with Escherichia coli was 64.6 µM (≈ 25 µg/mL); against Aspergillus niger, 129 µM (≈ 50 µg/mL); in the assay with Candida albicans it was 129 µM (≈ 50 µg/mL); in the assay with Staphylococcus aureus, 129 µM (≈ 50 µg/mL).

Turning to `Cc1ccc(N2C(=O)CSC2c2sc(Cc3ccc(Cl)cc3)nc2C)cc1` (configuration not stated), the figures for the inhibition in vivo at 40 mg/kg with Rattus norvegicus [1], in the assay with Rattus norvegicus [2] and in the assay with Rattus norvegicus [3] were 59.9%, 61.4% and 81.3%, respectively. For the same compound, the minimum inhibitory concentration (MIC) against Escherichia coli came out at 60.2 µM (≈ 25 µg/mL); against Aspergillus niger, 15.1 µM (≈ 6.25 µg/mL); in the assay with Candida albicans, 30.1 µM (≈ 12.5 µg/mL); with Staphylococcus aureus it was 60.2 µM (≈ 25 µg/mL).

On to `COc1ccc(N2C(=O)CSC2c2sc(Cc3ccc(Cl)cc3)nc2C)cc1` (configuration not stated), for which the values for the inhibition in vivo at 40 mg/kg with Rattus norvegicus [1], with Rattus norvegicus [2] and in the assay on Rattus norvegicus [3] were 20.9%, 28.6% and 55.9%, respectively. Besides, the MIC in the assay on Escherichia coli came out at 58 µM (≈ 25 µg/mL); with Aspergillus niger, 14.5 µM (≈ 6.25 µg/mL); in the assay with Candida albicans, 14.5 µM (≈ 6.25 µg/mL); against Staphylococcus aureus, 58 µM (≈ 25 µg/mL).

Regarding `Cc1nc(-c2ccc(Cl)cc2)sc1C1SCC(=O)N1c1ccc(F)c(Cl)c1` (configuration not stated), the inhibition in vivo at 40 mg/kg was determined as 53.4% in the assay on Rattus norvegicus [1], 45.1% in the assay on Rattus norvegicus [2] and 65.1% in the assay with Rattus norvegicus [3]. The MIC stood at 56.9 µM (≈ 25 µg/mL) with Escherichia coli, 114 µM (≈ 50 µg/mL) in the assay with Aspergillus niger, 114 µM (≈ 50 µg/mL) against Candida albicans and 56.9 µM (≈ 25 µg/mL) in the assay on Staphylococcus aureus.

Turning to `Cc1nc(Cc2ccc(Cl)cc2)sc1C1SCC(=O)N1c1ccc(F)c(Cl)c1` (configuration not stated), the values for the inhibition in vivo at 40 mg/kg with Rattus norvegicus [1], in the assay with Rattus norvegicus [2] and in the assay on Rattus norvegicus [3] were 40.7%, 45.1% and 68.9%, respectively. Moreover, the MIC in the assay with Escherichia coli is 55.1 µM (≈ 25 µg/mL); in the assay with Aspergillus niger it was 27.6 µM (≈ 12.5 µg/mL); in the assay on Candida albicans, 27.6 µM (≈ 12.5 µg/mL); against Staphylococcus aureus, 55.1 µM (≈ 25 µg/mL).

Regarding `Cc1nc(Cc2ccc(Cl)cc2)sc1C1SCC(=O)N1c1ccc(Cl)cc1` (configuration not stated), the figures for the inhibition in vivo at 40 mg/kg in the assay with Rattus norvegicus [1], in the assay with Rattus norvegicus [2] and in the assay on Rattus norvegicus [3] were 48.9%, 40.1% and 53.9%, respectively. The minimum inhibitory concentration (MIC) is 57.4 µM (≈ 25 µg/mL) against Escherichia coli, 28.7 µM (≈ 12.5 µg/mL) in the assay on Aspergillus niger, 28.7 µM (≈ 12.5 µg/mL) in the assay on Candida albicans and 28.7 µM (≈ 12.5 µg/mL) against Staphylococcus aureus.

Regarding `O=C(O)c1cn(C2CC2)c2cc(N3CCNCC3)c(F)cc2c1=O` [CIPROFLOXACIN], the MIC with Escherichia coli was determined as 2.35 µM (≈ 0.779 µg/mL); against Staphylococcus aureus, 4.7 µM (≈ 1.56 µg/mL).

Take `Cc1nc(-c2ccccc2)sc1C1SCC(=O)N1c1ccc(F)cc1` (configuration not stated): the inhibition in vivo at 40 mg/kg was found to be 63.9% in the assay on Rattus norvegicus [1], 63.4% in the assay with Rattus norvegicus [2] and 85.3% in the assay with Rattus norvegicus [3]. Further, the MIC against Escherichia coli was 33.7 µM (≈ 12.5 µg/mL); with Aspergillus niger, 33.7 µM (≈ 12.5 µg/mL); against Candida albicans it was 33.7 µM (≈ 12.5 µg/mL); against Staphylococcus aureus, 67.5 µM (≈ 25 µg/mL).

On to `COc1ccc(N2C(=O)CSC2c2sc(-c3ccccc3)nc2C)cc1` (configuration not stated), for which the inhibition in vivo at 40 mg/kg in the assay on Rattus norvegicus [1] worked out at 52.3%; in the assay on Rattus norvegicus [2], 48.1%; in the assay with Rattus norvegicus [3], 67.1%. Besides, the MIC in the assay on Escherichia coli was determined as 65.5 µM (≈ 25.1 µg/mL); in the assay with Aspergillus niger, 32.8 µM (≈ 12.5 µg/mL); against Candida albicans, 32.8 µM (≈ 12.5 µg/mL); against Staphylococcus aureus it was 65.5 µM (≈ 25.1 µg/mL).

For `Cc1nc(-c2ccccc2)sc1C1SCC(=O)N1c1ccc(F)c(Cl)c1` (configuration not stated), the inhibition in vivo at 40 mg/kg with Rattus norvegicus [1] worked out at 55.9%; in the assay on Rattus norvegicus [2] it was 20.9%; with Rattus norvegicus [3], 28.6%. The MIC in the assay on Escherichia coli was determined as 61.7 µM (≈ 25 µg/mL); in the assay on Aspergillus niger it was 123 µM (≈ 50 µg/mL); with Candida albicans it was 123 µM (≈ 50 µg/mL); with Staphylococcus aureus, 61.7 µM (≈ 25 µg/mL).

Turning to `Cc1nc(-c2ccc(Cl)cc2)sc1C1SCC(=O)N1c1ccc(Cl)cc1` (configuration not stated), the inhibition in vivo at 40 mg/kg turned out to be 69.3% in the assay on Rattus norvegicus [1], 45.7% in the assay with Rattus norvegicus [2] and 43.1% in the assay on Rattus norvegicus [3]. Besides, the minimum inhibitory concentration (MIC) with Escherichia coli stood at 29.7 µM (≈ 12.5 µg/mL); against Aspergillus niger it was 119 µM (≈ 50 µg/mL); in the assay on Candida albicans, 119 µM (≈ 50 µg/mL); in the assay on Staphylococcus aureus, 59.3 µM (≈ 25 µg/mL).

For `COc1ccc(N2C(=O)CSC2c2sc(-c3ccc(Cl)cc3)nc2C)cc1` (configuration not stated), the inhibition in vivo at 40 mg/kg in the assay with Rattus norvegicus [1] is 54%; in the assay with Rattus norvegicus [2], 80.7%; in the assay on Rattus norvegicus [3], 59.1%. Further, the MIC against Escherichia coli, against Aspergillus niger, with Candida albicans and in the assay on Staphylococcus aureus was 30 µM (≈ 12.5 µg/mL) throughout.

Consider `Cc1nc(Cc2ccc(Cl)cc2)sc1C1SCC(=O)N1c1ccc(F)cc1` (configuration not stated), for which the MIC with Escherichia coli was 59.7 µM (≈ 25 µg/mL); against Aspergillus niger, 14.9 µM (≈ 6.25 µg/mL); against Candida albicans it was 14.9 µM (≈ 6.25 µg/mL); against Staphylococcus aureus it was 59.7 µM (≈ 25 µg/mL).

In the case of `Cc1nc(Cc2ccc(Cl)cc2)sc1C1SCC(=O)N1c1ccccc1` (configuration not stated), the inhibition result with Rattus norvegicus [1], in the assay with Rattus norvegicus [2] and in the assay with Rattus norvegicus [3] was “inactive” in each case. The MIC in the assay on Escherichia coli was determined as 67.8 µM (≈ 27.2 µg/mL); with Aspergillus niger it was 33.9 µM (≈ 13.6 µg/mL); in the assay with Candida albicans, 33.9 µM (≈ 13.6 µg/mL); against Staphylococcus aureus it was 67.8 µM (≈ 27.2 µg/mL).

Regarding `COc1ccc2c(c1)c(CC(=O)O)c(C)n2C(=O)c1ccc(Cl)cc1` [INDOMETHACIN], the inhibition in vivo at 40 mg/kg in the assay with Rattus norvegicus [1] came out at 70.2%; with Rattus norvegicus [2], 78.3%; in the assay with Rattus norvegicus [3], 87.3%.
